What all share (assay type): cell-based, human
For test [1], the system named is Chub-S7 cells. Description: Adipocyte marker gene expression by real-time RT-PCR during Chub-S7 cell differentiation. The conditions noted are these: for LPL mRNA fold-increase / aP2 mRNA fold-increase: day 17 as compared to day 0, 1 μM Dex alone or with 1 μM BRL49653 from day 3. The procedure: Adipocyte differentiation of Chub-S7 cells was tested under serum-free culture conditions. To promote pre-adipocyte differentiation, confluent cells were incubated with a basal medium (see Material and Methods) supplemented with 500 μM IBMX and 1 μM Dex for the first 3 days, and 1 μM of a PPARγ agonist (BRL49653) and 1 μM Dex from day 3 to 17. This condition was compared to the basal medium alone or supplemented with Dex plus IBMX from day 0 to 3 and Dex alone from day 3 to 17. To determine whether Chub-S7 cells were able to differentiate, the expression of adipocyte markers was assessed, by real-time RT-PCR, at different time points during cellular maturation. These markers included i) transcriptional factors involved in adipogenesis such as peroxisome proliferator-activated receptor γ (PPARγ) and CAAT/enhancer binding protein α (C/EBPα), ii) genes involved in lipid metabolism such as lipoprotein lipase (LPL) and adipocyte fatty acid binding protein (aP2), and finally iii) adipocyte secreted factors such as adipsin and leptin.
Chub-S7 cells were cultured from day 0 to 17 in the presence of the basal medium as defined in Material and Methods (m), or in the basal medium with 1 μM Dex plus 500 μM IBMX from day 0 to 3 and dexamethasone from day 3 to 17 (●) or supplemented with 1 μM BRL49653 (▪). The arrow indicates the day from which BRL49653 was added to the medium. Relative gene expression was quantified by real-time RT-PCR. Data are the means±SEM of values obtained at least in four separate experiments. […] Top panels show representative RT-PCRs performed at a number of cycle defined according to the linear amplification of the genes (see Material and Methods).
Cells were grown in a mixture of DMEM/F12 media supplemented with 10% FBS, 2 mM glutamine, 100 U/ml penicillin/streptamycin until confluency. For differentiation, cells were washed with PBS and cultured with a serum-free medium consisting of a mixture of DMEM/F12 media supplemented with 15 mM NaHCO3, 17 μM D-panthotenic acid, 15 mM Hepes, 33 μM biotin, 10 μg/ml transferrin, 1 nM triiodothyronin, 850 nM insulin and 500 μg/ml fetuin. This medium, referred to “basal medium” was supplemented with 1 μM dexamethasone (Dex) and 500 μM IBMX from day 0 to 3. Dex was maintained alone or with 1 μM BRL49653 from day 3 to 17 in order to promote differentiation. As stated in Results, oleic acid (OA) complexed with bovine serum albumin (BSA; ratio OA-to-BSA: 5: 1) was added to the medium containing BRL49653 from day 10 to 17. Lipid accumulation in differentiated cells was visualized by Oil red O staining as previously described (22). All the experiments on Chub-S7 cell characterization were performed between passages 18 and 32 (69 to 122 population doublings).
RNAs from Chub-S7 cells cultured from day 0 to 17 were extracted using the NucleoSpin® Total RNA Purification System (Macherey-Nagel, Oensingen Switzerland). Reverse transcription was performed with an input of 10 μg of total RNA using the 1st strand cDNA synthesis kit for RT-PCR (AMV; Roche Biomedical, Basel, Switzerland) with oligo d(T)15 as primer. Real-time reverse transcription-polymerase chain reaction analyses were performed in a fluorescent temperature cycler (GeneAmp® PCR 5700 Sequence Detection System; Applied Biosystem) according to the recommendations of the manufacturer. Briefly, after initial denaturation at 50° C. for 2 min and 95° C. for 10 min, reactions were cycled 40 times using the following parameters for all genes studied: 95° C. for 15s, primer annealing and extension at 60° C. for 1 min. SYBR Green I fluorescence was detected at the end of each cycle to monitor the amount of PCR product formed during that cycle. Primers used for the amplification of cDNAs of interest were synthesized by Mycrosynth (Windisch, Switzerland).
Cycle to cycle fluorescence emission was monitored and quantified using the GenAmp software provided by Applied Biosystem. […]
Background: Quantitative PCR measures a nucleic acid by following its amplification.

The test system of test [2] is Chub-S7 cells. The test is described as follows: Triglyceride accumulation in differentiated Chub-S7 cells (Oil red O staining). The conditions noted are these: 100 μM OA complexed with BSA, day 10 to 17, in differentiation medium containing BRL49653. On the procedure:
To study the ability of differentiated Chub-S7 cells to accumulate intracellular lipids, cells cultured for 17 days in the absence or in the presence of BRL49653 were fixed and stained with Oil-red O. Almost all the differentiated cells were able to accumulate at least one single lipid droplet and few of them presented large multilocular droplets (FIG. 10B).
Chub-S7 cells were grown in the presence of the basal medium with 1 μM dexamethasone plus 500 μM IBMX from day 0 to 3 and Dex from day 3 to 17 or supplemented with 1 μM BRL49653 alone or in the presence of 100 μM OA from day 10 to 17. At day 17, cells were fixed and triglycerides were visualized using the oil-red O staining. A: Staining of culture wells containing Chub-S7 cells differentiated under the conditions described above. B: Morphology of Chub-S7 cells differentiated with dexamethasone and BRL49653 or in the same medium supplemented with oleate (Magnitude 400×). Data are representative of at least 3 independent experiments.
Cells were grown in a mixture of DMEM/F12 media supplemented with 10% FBS, 2 mM glutamine, 100 U/ml penicillin/streptamycin until confluency. […]

The test system of test [3] is Chub-S7 cells. Description: Lipolysis (glycerol release) in differentiated Chub-S7 cells. The conditions noted are these: 1 μM isoproterenol, 1 h; day 17; cells differentiated with BRL49653. The procedure: Lipolytic capacity of differentiated cells was assessed by measuring glycerol release, after stimulation or not for 1 h with 1 μM isoproterenol (Iso), a non-specific β-adrenergic agonist. Cells were differentiated in the presence of BRL49653 alone.
A. Chub-S7 cells were differentiated in the presence of 1 μM Dex plus 500 μM IBMX from day 0 to 3 and dexamethasone plus 1 μM BRL49653 from day 3 to 17. Glycerol released in the medium was measured in the presence or in the absence of 1 μM isoproterenol. Data are the means of values obtained at least in four separate experiments. […] B. Chub-S7 cells were cultured from day 0 to 17 in the presence of the basal medium (m), or in the basal medium with 1 μM Dex plus 500 μM IBMX from day 0 to 3 and Dex from day3 to 17 (●) or supplemented with 1 μM BRL49653 (▪). Data are the means±SEM of values obtained at least in four separate experiments.
(iv) Glycerol-3-phosphate dehydrogenase activity and lipolysis measurements Glycerol-3-phosphate dehydrogenase (GPDH) activity measured at different times during the differentiation process of Chub-S7 cells was determined using the enzymatic assay previously described (23). Lipolysis was determined at day 17 after confluency. […] Glycerol released in the medium was measured using the glycerokinase enzymatic radiometric assay described by Bradley and Kaslow (24).

These results are taken from patent US7294509B2, “Pre-adipose cell lines” (Nestec S.A., priority 2000, dated 2007).

In the case of `CN(CCOc1ccc(CC2SC(=O)NC2=O)cc1)c1ccccn1` (centres unmarked) [BRL49653], in the test with Chub-S7 cells [1] (day 17, 1 μM BRL49653), the “leptin mRNA, higher in presence of BRL49653 compared to Dex alone” value is 2 fold. In the test with Chub-S7 cells [1], the “LPL mRNA fold-increase” value is 308 fold-increase and the “aP2 mRNA fold-increase” value was found to be 8372 fold-increase.

As for `CCCCCCCC/C=C\CCCCCCCC(=O)O` [OA, oleic acid], the triglyceride content result in the test on Chub-S7 cells [2] was “dramatic increase”. Further, the “expression of LPL, C/EBPα, aP2, leptin and adipsin induced by BRL49653” value with Chub-S7 cells [1] (100 μM OA day 10 to 17, data not shown) is given as “did not affect”.

In the case of `C[C@@H]1C[C@H]2[C@@H]3CCC4=CC(=O)C=C[C@]4(C)[C@@]3(F)[C@@H](O)C[C@]2(C)[C@@]1(O)C(=O)CO` [Dex, Dexamethasone], in the test with Chub-S7 cells [1], the “LPL mRNA fold-increase” value came to 16 fold-increase and the “aP2 mRNA fold-increase” value was determined as 8 fold-increase.

In the case of `CC(C)NCC(O)c1ccc(O)c(O)c1` (centres unmarked) [Iso, isoproterenol], the “increase in lipolysis (glycerol release)” value in the test with Chub-S7 cells [3] is 40.5%.
